Data: ChEMBL document CHEMBL1641367, “Antioxidant, anti-inflammatory and anti-hyperglycaemic activities of heterocyclic homoprostanoid derivatives” (2011)
Activity calls are given as the source filed them. The calls are words filed in the database; no cut-off is given here.

Legend:
Serum [1] = test: Antiinflammatory activity in bovine serum assessed as denaturation of albumin at 1 mM after 10 mins by spectrophotometry; format: functional; conditions: Bos taurus
Rattus norvegicus [2] = test: Antiinflammatory activity in rat assessed as inhibition of carrageenan-induced hind paw edema at 100 mg/kg, po measured after 3 hrs of carrageenan challenge; format: functional
[3] = target: Dipeptidyl peptidase 4 (Homo sapiens) (UniProt P27487); test: Inhibition of DPP4 at 500 ug/ml after 30 mins by spectrophotometry
Mus musculus [4] = test: Antihyperglycemic activity in mouse assessed as decrease in blood glucose AUC level at 100 mg/kg, ip administered before glucose challenge measured after 120 mins post glucose infusion; format: functional; conditions: 2 h, route intraperitoneal
Rattus norvegicus [5] = test: Antiinflammatory activity in rat assessed as inhibition of complete Freund's adjuvant-induced paw swelling at 100 mg/kg, po administered on day 21 post induction of inflammation measured on day 35; format: functional
Mus musculus [6] = test: Antihyperglycemic activity in mouse assessed as decrease in blood glucose AUC level at 100 mg/kg, po administered before glucose challenge measured after 120 mins post glucose infusion; format: functional, organism-based; set-up: dose 100 mg/kg
Serum [7] = test: Antiinflammatory activity in bovine serum assessed as denaturation of albumin at 0.25 mM after 10 mins by spectrophotometry; format: functional; conditions: Bos taurus
Serum [8] = test: Antiinflammatory activity in bovine serum assessed as denaturation of albumin at 0.01 mM after 10 mins by spectrophotometry; format: functional; conditions: Bos taurus
Serum [9] = test: Antiinflammatory activity in bovine serum assessed as denaturation of albumin at 5 mM after 10 mins by spectrophotometry; format: functional; conditions: Bos taurus
Rattus norvegicus [10] = test: Antiinflammatory activity in rat assessed as inhibition of complete Freund's adjuvant-induced paw swelling at 5 mg/kg, po administered on day 21 post induction of inflammation measured on day 35; format: functional

Dipeptidyl peptidase 4 (Homo sapiens), sequence (P27487 whole entry, looked up, the tested form may be a part): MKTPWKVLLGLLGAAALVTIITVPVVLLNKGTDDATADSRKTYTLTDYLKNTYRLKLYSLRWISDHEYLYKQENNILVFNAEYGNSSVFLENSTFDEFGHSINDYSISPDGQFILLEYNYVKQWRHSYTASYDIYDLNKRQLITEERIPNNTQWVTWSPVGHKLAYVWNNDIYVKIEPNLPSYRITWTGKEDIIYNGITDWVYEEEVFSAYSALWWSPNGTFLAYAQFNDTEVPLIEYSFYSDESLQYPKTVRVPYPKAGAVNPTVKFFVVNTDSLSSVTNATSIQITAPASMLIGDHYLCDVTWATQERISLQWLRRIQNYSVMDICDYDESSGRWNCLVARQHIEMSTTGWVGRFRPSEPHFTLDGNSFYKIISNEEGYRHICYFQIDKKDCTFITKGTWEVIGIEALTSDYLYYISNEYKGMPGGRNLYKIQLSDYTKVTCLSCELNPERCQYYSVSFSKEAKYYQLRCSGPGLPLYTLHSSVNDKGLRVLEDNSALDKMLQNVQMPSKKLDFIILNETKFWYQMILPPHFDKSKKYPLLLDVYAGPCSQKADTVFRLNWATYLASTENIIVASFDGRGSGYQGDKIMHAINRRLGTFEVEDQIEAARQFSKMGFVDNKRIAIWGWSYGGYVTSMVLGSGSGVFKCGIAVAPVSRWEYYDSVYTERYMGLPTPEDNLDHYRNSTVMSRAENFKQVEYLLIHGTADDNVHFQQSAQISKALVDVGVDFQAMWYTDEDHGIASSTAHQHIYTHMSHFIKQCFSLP

Compound	inhibition at 1000 µM (Serum [1]) [%]	inhibition in vivo at 100 mg/kg (Rattus norvegicus [2]) [%]	inhibition [3] [%]	also measured
CCCCCCCCC1=NC(=O)N=C1CCCCCCCC(=O)OCCO[N+](=O)[O-]	25.1	-22.8	-6.22	–
CCCCCCCCc1nc2ccc([N+](=O)[O-])cc2nc1CCCCCCCC(=O)O	36.9	39.6	64	inhibition in vivo at 100 mg/kg (Mus musculus [4]): 45.1%; inhibition in vivo at 100 mg/kg (Rattus norvegicus [5]): 53.3%; inhibition (Mus musculus [6]): inactive
CCCCCCCCc1nc(=S)[nH]nc1CCCCCCCC(=O)O	–	-3.82	58.3	inhibition at 250 µM (Serum [7]): 14%
CCCCCCCCC1=NC(=S)N=C1CCCCCCCC(=O)NN1C(=O)CSC1c1ccc(Cl)cc1 (stereo unspecified)	–	-21.7	–	–
CCCCCCCCC1=NC(=S)N=C1CCCCCCCC(=O)O	78.3	-7.17	–	–
CCCCCCCCC1=NC(=O)N=C1CCCCCCCC(=O)NN	31.4	–	–	–
CCCCCCCCc1nc2ccc(Cl)cc2nc1CCCCCCCC(=O)O	57.1	26.7	45.5	inhibition in vivo at 100 mg/kg (Mus musculus [4]): 36.7%; inhibition in vivo at 100 mg/kg (Rattus norvegicus [5]): 44.2%; inhibition (Mus musculus [6]): inactive
CCCCCCCCC1=NC(=O)N=C1CCCCCCCC(=O)O	76.7	-12.9	–	–
CCCCCCCCC1=NC(=O)N=C1CCCCCCCC(=O)NN1C(=O)CSC1c1ccc(Cl)cc1 (stereo unspecified)	–	0	–	–
CCCCCCCCc1nc2ccccc2nc1CCCCCCCC(=O)O	75.7	34.4	73.6	–
CCCCCCCCC1=NC(=O)CC(=O)N=C1CCCCCCCC(=O)O	–	1.74	12.3	inhibition at 250 µM (Serum [7]): 37%
CCCCCCCCc1nc2ccc(C)cc2nc1CCCCCCCC(=O)O	37.4	12.5	88.1	–
CCCCCCCCC1=NC(=S)N=C1CCCCCCCC(=O)OCCO[N+](=O)[O-]	–	-22.4	23.3	inhibition at 10 µM (Serum [8]): 38.1%
CCCCCCCCc1nonc1CCCCCCCC(=O)O	–	–	2.2	inhibition at 5000 µM (Serum [9]): 25.4%
CCCCCCCCC1OC(C)(C)OC1CCCCCCCC(=O)OCC (stereo unspecified)	–	–	–	inhibition at 5000 µM (Serum [9]): 46.4%
CCCCCCCCc1nc2ccccc2nc1CCCCCCCC(=O)NN	3.72	–	–	–
O=C(O)Cc1ccccc1Nc1c(Cl)cccc1Cl [DICLOFENAC]	–	38.2	–	inhibition at 5000 µM (Serum [9]): 56.3%; inhibition in vivo at 5 mg/kg (Rattus norvegicus [10]): 35.3%
CCCCCCCCC1=NC(=S)N=C1CCCCCCCC(=O)NN	–	–	–	inhibition at 10 µM (Serum [8]): 37.2%
CCCCCCC(CC1OC(C)(C)OC1CCCCCCCC(=O)OC)OC(C)=O (stereo unspecified)	–	–	–	inhibition at 5000 µM (Serum [9]): 48.5%
